In paper PMC9987361, “Interaction of hemorphins with ACE homologs” (Scientific Reports, 2023):
Where two headings read alike, the source gives them in different places. No end group written: not given here.

Tests used:
ACE2 = system: ACE2; parameters: method as in printed at the sentence; details: clinically used ACE1 inhibitors; background statement, ref not given; cited from earlier work
ACE1 = target: T1, ACE1 (Homo sapiens, UniProt P12821); assay: In vitro ACE1 inhibition assay (colorimetric ACE1 Kit-WST, absorbance 450 nm); format: biochemical
T1 construct: purchased Dojindo Laboratories
T1 sequence (P12821 30-1306): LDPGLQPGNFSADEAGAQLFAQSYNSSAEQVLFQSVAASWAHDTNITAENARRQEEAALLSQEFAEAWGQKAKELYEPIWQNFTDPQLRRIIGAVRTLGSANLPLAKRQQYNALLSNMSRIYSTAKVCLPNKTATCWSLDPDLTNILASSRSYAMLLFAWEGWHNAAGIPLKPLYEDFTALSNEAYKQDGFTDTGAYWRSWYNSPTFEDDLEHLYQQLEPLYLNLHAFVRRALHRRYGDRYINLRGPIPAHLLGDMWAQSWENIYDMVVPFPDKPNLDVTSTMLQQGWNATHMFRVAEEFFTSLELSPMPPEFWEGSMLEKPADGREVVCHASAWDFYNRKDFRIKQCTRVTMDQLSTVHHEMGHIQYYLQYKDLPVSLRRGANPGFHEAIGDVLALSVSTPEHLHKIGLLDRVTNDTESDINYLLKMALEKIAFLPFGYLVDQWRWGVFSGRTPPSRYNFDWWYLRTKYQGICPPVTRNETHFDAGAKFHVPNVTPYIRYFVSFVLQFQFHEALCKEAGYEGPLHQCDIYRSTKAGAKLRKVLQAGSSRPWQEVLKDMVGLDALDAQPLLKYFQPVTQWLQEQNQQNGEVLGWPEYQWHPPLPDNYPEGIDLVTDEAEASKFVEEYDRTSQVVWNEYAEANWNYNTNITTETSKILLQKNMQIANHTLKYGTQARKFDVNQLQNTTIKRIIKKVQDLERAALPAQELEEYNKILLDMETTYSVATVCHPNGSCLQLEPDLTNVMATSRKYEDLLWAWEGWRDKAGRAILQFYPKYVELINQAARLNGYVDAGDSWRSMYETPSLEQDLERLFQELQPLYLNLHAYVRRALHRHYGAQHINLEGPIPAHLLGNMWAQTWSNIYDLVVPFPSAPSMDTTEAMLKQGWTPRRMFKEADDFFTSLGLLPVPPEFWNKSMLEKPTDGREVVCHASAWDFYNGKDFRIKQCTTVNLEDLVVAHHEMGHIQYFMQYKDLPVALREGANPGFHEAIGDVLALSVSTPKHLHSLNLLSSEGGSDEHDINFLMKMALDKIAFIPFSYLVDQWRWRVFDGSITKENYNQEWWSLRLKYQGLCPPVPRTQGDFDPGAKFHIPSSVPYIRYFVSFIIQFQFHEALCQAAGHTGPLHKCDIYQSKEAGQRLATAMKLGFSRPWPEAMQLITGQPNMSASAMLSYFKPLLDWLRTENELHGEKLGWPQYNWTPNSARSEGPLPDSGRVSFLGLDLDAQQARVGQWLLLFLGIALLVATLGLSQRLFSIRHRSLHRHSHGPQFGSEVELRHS
Experimental: ACE1 inhibition was measured using the absorbance-based colorimetric ACE1 Kit-WST (Dojindo Laboratories, Mashiki-machi, Japan) according to the kit instructions. […] The 18 peptides (Table 2) were initially screened in a single run at concentrations of 0, 10, 50, 100, 200, and 500 µM. […] In a 96-well microplate, 20 µL of each hemorphin concentration was pipetted into each well. In addition, 20 µL and 40 µL of deionized water were pipetted into blank 1 and blank 2 wells, respectively, and 20 µL of substrate buffer and 20 µL of enzyme working solution were pipetted into each sample well and blank 1 well.
The microplate was incubated at 37 °C for 1 h. After incubation, 200 µL of indicator working solution was pipetted to each well and then incubated for 5 min at room temperature.
The absorbance was then measured at 450 nm using a Glomax Discover Microplate Reader (Promega, Madison, WI, USA). ACE1 inhibition was measured using the equation given below: Inhibitionrate%=Blank1-Sample/Blank1-Blank2×100 where Blank1 (without a sample but with enzyme working solution) and Blank2 (without a sample and no enzyme working solution) are 20 µL and 40 µL deionized water, respectively.
The half-maximal inhibitory concentration (IC50) was determined using GraphPad Prism version 9 (GraphPad, San Diego, CA) from a nonlinear regression inhibition plot against the peptide concentration.

[1] = Dissolution of purchased peptides during sample preparation; format: physicochemical; details: sample preparation for ACE1 screening
Experimental: All the purchased peptides were screened in an initial run at 0, 10, 50, 100, 200, and 500 µM.

[2] = IC50 (μM) ± SD against ACE1, mean ± SD of three independent experiments (triplicate runs)
[3] = IC50 values of initial single-run peptide screening, single run at 0, 10, 50, 100, 200 and 500 µM, unit not given for IC50

Compound | IC50 (ACE1; [2]) [µM] | IC50 (ACE1; [3]) [µM] | other results
NCCCC[C@H](N[C@@H](CCc1ccccc1)C(=O)O)C(=O)N1CCC[C@H]1C(=O)O [lisinopril] | – | – | Activity against ACE2 (ACE2): inactivity
LVVYPWTQR [LVVHem6] | 6.45 | 14.9 | –
VVYPWTQR [VVHem6] | 12.7 | 30.3 | –
LVVYPWTQ [LVVHem5] | 20.1 ± 1.33 | 36.7 | –
LVVYPWTR [Camel LVVHem5] | 6.88 ± 1.89 | 21.2 | –
CC(C)C[C@H](N)C(=O)N[C@H](C(=O)N[C@H](C(=O)N[C@@H](Cc1ccc(O)cc1)C(=O)N1CCC[C@H]1C(=O)N[C@@H](Cc1c[nH]c2ccccc12)C(=O)N[C@H](C(=O)N[C@@H](CCCNC(=N)N)C(=O)N[C@@H](CCCNC(=N)N)C(=O)N[C@@H](Cc1ccccc1)C(=O)O)[C@@H](C)O)C(C)C)C(C)C [Camel LVVHem7] | 11.1 ± 2.18 | 25.8 | –
YPWTRR [Camel Hem6] | – | – | Dissolution during sample preparation [1]: did not dissolve
YPWTQRF [Hem7, Tyr-Pro-Trp-Thr-Gln-Arg-Phe] | – | 95.1 | –
C[C@H](CS)C(=O)N1CCC[C@H]1C(=O)O [captopril] | – | – | Activity against ACE2 (ACE2): inactivity
VVYPWTRR [Camel VVHem6] | – | 44.1 | –
LVVYPWTRR [Camel LVVHem6] | 5.12 ± 0.7 | 25.9 | –
YPWTQR [Hem6, Tyr-Pro-Trp-Thr-Gln-Arg] | – | 80.2 | –
Tyr-Pro-Trp-Thr-Gln (YPWTQ; printed: Tyr-Pro-Trp-Thr-Gln) [Hem5] | – | – | Dissolution during sample preparation [1]: did not dissolve
YPWTR [Camel Hem5, Tyr-Pro-Trp-Thr-Arg] | – | – | IC50 (ACE1): 78.8 µM
VVYPWTRRF [Camel VVHem7] | – | 51.4 | –
Tyr-Pro-Trp-Thr [Hem4] | – | – | IC50 values of initial single-run peptide screening (ACE1; single run at 0, 10, 50, 100, 200 and 500 µM, unit not given for IC50): No IC50
YPWTRRF [Camel Hem7, Tyr-Pro-Trp-Thr-Arg-Arg-Phe] | 23.6 ± 3.7 | 44.1 | –
CC(C)C[C@H](N)C(=O)N[C@H](C(=O)N[C@H](C(=O)N[C@@H](Cc1ccc(O)cc1)C(=O)N1CCC[C@H]1C(=O)N[C@@H](Cc1c[nH]c2ccccc12)C(=O)N[C@H](C(=O)N[C@@H](CCC(N)=O)C(=O)N[C@@H](CCCNC(=N)N)C(=O)N[C@@H](Cc1ccccc1)C(=O)O)[C@@H](C)O)C(C)C)C(C)C [LVVHem7] | 13.1 ± 2.87 | 29.3 | –
